Results from patent US10231954B2, “Neurodegenerative therapies” (LYTIX BIOPHARMA AS, priority 2014, dated 2019).

Tests used:
Format in all cases: biochemical
[1] = molecular target: MKK2 (Homo sapiens, UniProt P36507); experiment: Kinase profiling MKK2; details: 100 micromolar inhibitor concentration, 100 is no change; for remaining activity at 100 µM: read-out: residual kinase activity, MKK2
Description: (§1) Any value less that 25 is considered to be highly significant inhibition.

[2] = molecular target: JNK2 (Homo sapiens, UniProt P45984); experiment: Kinase profiling JNK2; details: 100 micromolar inhibitor concentration, 100 is no change; for remaining activity at 100 µM: read-out: residual kinase activity, JNK2
Chain of JNK2 (P45984 whole entry, species assumed): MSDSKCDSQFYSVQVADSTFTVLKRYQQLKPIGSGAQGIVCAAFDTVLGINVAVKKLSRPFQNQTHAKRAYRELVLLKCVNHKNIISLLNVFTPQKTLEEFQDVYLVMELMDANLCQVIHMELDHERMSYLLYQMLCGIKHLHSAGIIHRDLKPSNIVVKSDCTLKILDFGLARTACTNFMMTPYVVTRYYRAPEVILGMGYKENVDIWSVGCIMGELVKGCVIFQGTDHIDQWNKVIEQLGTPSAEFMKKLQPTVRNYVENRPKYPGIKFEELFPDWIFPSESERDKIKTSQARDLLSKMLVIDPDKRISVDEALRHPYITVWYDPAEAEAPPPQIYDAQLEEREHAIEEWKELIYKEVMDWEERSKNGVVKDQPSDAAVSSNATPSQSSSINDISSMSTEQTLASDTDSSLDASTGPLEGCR
Description: as §1

[3] = molecular target: T1, p38d MAPK (Homo sapiens, UniProt O15264); experiment: Kinase profiling p38d MAPK; details: 100 micromolar inhibitor concentration, 100 is no change; for remaining activity at 100 µM: read-out: residual kinase activity, p38d MAPK
T1 sequence (O15264 1-365): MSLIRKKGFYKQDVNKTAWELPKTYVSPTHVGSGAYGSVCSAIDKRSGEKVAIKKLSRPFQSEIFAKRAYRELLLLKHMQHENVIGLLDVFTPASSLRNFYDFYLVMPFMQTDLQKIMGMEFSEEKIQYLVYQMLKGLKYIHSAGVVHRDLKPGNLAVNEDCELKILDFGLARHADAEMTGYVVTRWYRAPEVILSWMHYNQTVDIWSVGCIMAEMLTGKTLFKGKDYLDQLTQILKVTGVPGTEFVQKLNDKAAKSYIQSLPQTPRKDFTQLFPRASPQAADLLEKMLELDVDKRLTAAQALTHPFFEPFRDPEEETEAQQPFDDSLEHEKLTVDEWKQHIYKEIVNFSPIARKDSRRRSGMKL
Description: as §1

[4] = tested on: PHK; experiment: Kinase profiling PHK; details: 100 micromolar inhibitor concentration; 100 is no change
Description: as §1

[5] = molecular target: T2, Aurora A (Homo sapiens, UniProt O14965); experiment: Kinase profiling Aurora A; details: 100 micromolar inhibitor concentration, 100 is no change; for remaining activity at 100 µM: read-out: residual kinase activity, Aurora A
T2 sequence (O14965 1-403): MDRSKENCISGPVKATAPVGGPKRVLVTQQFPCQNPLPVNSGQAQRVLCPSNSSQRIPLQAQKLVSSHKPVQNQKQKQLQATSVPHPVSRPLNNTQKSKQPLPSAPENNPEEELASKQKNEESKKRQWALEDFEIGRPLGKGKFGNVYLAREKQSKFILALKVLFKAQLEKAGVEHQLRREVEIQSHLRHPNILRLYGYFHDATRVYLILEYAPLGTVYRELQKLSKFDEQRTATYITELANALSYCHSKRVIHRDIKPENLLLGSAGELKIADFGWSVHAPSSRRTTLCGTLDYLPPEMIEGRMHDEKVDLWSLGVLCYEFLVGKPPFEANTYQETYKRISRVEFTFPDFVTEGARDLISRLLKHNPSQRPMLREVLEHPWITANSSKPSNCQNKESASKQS
Description: as §1

[6] = molecular target: TTBK2 (Homo sapiens, UniProt Q6IQ55); experiment: Kinase profiling TTBK2; details: 100 micromolar inhibitor concentration, 100 is no change; for remaining activity at 100 µM: read-out: residual kinase activity, TTBK2
Description: as §1

[7] = molecular target: T3, IKKe (Homo sapiens, UniProt Q14164); experiment: Kinase profiling IKKe; details: 100 micromolar inhibitor concentration, 100 is no change; for remaining activity at 100 µM: read-out: residual kinase activity, IKKe
T3 sequence (Q14164 1-716): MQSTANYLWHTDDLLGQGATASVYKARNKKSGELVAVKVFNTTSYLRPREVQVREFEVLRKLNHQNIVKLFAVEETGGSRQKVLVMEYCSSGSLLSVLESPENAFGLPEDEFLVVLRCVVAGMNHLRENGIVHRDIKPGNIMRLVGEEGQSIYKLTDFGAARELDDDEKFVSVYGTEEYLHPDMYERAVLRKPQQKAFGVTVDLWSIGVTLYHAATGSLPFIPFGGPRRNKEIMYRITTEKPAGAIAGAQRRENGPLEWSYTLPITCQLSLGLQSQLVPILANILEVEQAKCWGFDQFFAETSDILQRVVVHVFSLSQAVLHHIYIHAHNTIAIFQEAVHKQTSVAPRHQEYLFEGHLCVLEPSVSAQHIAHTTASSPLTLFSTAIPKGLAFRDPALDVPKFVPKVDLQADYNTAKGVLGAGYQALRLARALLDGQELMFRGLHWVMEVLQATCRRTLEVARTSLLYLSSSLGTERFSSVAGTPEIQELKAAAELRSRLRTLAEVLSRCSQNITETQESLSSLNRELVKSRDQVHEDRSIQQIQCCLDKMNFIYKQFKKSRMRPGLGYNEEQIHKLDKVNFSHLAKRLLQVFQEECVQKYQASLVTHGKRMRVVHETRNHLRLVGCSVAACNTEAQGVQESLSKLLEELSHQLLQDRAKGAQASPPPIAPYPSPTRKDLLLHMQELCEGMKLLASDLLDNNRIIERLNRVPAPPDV
Description: as §1

[8] = molecular target: PAK2 (Homo sapiens, UniProt Q13177); experiment: Kinase profiling PAK2; details: 100 micromolar inhibitor concentration, 100 is no change; for remaining activity at 100 µM: read-out: residual kinase activity, PAK2
Chain of PAK2 (Q13177 whole entry, species assumed): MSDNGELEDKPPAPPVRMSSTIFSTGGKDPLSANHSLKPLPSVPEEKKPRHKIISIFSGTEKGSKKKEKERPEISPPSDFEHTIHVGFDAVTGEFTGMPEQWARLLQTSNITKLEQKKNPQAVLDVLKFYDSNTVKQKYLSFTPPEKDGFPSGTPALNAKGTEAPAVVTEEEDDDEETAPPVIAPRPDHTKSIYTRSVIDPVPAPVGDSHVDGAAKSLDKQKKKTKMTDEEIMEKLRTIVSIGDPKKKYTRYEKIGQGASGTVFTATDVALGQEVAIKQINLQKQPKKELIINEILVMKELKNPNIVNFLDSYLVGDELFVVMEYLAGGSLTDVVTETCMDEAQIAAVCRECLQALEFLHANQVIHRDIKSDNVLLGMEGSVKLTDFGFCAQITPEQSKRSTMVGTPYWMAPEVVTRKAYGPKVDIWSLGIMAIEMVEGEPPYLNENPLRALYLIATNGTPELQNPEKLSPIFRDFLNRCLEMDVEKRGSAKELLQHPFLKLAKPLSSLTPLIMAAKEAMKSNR
Description: as §1

[9] = molecular target: PAK6 (Homo sapiens, UniProt Q9NQU5); experiment: Kinase profiling PAK6; details: 100 micromolar inhibitor concentration, 100 is no change; for remaining activity at 100 µM: read-out: residual kinase activity, PAK6
Chain of PAK6 (Q9NQU5 whole entry, species assumed): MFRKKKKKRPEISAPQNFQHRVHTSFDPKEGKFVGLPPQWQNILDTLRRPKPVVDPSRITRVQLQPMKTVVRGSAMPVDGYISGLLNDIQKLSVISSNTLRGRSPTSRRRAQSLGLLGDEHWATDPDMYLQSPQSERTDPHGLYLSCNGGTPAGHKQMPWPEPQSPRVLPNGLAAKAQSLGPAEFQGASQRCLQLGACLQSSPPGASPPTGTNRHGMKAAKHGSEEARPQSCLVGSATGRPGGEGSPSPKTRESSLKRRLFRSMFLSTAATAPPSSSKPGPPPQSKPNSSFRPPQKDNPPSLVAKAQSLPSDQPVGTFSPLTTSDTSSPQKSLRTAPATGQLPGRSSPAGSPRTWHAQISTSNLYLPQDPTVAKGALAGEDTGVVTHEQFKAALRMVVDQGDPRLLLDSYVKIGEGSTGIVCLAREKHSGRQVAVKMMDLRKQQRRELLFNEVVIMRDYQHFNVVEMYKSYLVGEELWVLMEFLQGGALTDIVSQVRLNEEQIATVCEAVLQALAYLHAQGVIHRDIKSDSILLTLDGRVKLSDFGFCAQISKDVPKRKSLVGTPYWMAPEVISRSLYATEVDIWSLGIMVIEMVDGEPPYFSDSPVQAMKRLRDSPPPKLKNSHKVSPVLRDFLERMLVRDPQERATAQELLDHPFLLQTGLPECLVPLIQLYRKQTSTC
Description: as §1

[10] = molecular target: IRAK1 (Homo sapiens, UniProt P51617); experiment: Kinase profiling IRAK1; details: 100 micromolar inhibitor concentration, 100 is no change; for remaining activity at 100 µM: read-out: residual kinase activity, IRAK1
Chain of IRAK1 (P51617 whole entry, species assumed): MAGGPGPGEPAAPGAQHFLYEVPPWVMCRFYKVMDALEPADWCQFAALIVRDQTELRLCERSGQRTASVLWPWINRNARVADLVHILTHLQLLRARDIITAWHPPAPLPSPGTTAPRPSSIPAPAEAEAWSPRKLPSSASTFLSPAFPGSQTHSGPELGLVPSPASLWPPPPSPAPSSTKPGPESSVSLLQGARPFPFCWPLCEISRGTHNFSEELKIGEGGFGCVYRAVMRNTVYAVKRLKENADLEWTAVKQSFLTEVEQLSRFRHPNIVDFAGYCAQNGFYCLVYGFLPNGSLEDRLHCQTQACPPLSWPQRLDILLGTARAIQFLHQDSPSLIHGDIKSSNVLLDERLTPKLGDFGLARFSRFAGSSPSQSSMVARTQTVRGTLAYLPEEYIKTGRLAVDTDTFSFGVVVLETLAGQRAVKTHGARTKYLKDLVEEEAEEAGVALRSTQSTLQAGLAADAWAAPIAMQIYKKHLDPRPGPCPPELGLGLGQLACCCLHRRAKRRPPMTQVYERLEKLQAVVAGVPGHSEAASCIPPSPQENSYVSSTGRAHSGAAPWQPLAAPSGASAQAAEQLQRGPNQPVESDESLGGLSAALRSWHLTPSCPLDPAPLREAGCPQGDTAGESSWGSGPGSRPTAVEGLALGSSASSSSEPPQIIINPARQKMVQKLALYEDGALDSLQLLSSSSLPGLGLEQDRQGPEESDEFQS
Description: as §1

[11] = molecular target: IRR (Homo sapiens, UniProt P14616); experiment: Kinase profiling IRR; details: 100 micromolar inhibitor concentration, 100 is no change; for remaining activity at 100 µM: read-out: residual kinase activity, IRR
Chain of IRR (P14616 27-1297, species assumed): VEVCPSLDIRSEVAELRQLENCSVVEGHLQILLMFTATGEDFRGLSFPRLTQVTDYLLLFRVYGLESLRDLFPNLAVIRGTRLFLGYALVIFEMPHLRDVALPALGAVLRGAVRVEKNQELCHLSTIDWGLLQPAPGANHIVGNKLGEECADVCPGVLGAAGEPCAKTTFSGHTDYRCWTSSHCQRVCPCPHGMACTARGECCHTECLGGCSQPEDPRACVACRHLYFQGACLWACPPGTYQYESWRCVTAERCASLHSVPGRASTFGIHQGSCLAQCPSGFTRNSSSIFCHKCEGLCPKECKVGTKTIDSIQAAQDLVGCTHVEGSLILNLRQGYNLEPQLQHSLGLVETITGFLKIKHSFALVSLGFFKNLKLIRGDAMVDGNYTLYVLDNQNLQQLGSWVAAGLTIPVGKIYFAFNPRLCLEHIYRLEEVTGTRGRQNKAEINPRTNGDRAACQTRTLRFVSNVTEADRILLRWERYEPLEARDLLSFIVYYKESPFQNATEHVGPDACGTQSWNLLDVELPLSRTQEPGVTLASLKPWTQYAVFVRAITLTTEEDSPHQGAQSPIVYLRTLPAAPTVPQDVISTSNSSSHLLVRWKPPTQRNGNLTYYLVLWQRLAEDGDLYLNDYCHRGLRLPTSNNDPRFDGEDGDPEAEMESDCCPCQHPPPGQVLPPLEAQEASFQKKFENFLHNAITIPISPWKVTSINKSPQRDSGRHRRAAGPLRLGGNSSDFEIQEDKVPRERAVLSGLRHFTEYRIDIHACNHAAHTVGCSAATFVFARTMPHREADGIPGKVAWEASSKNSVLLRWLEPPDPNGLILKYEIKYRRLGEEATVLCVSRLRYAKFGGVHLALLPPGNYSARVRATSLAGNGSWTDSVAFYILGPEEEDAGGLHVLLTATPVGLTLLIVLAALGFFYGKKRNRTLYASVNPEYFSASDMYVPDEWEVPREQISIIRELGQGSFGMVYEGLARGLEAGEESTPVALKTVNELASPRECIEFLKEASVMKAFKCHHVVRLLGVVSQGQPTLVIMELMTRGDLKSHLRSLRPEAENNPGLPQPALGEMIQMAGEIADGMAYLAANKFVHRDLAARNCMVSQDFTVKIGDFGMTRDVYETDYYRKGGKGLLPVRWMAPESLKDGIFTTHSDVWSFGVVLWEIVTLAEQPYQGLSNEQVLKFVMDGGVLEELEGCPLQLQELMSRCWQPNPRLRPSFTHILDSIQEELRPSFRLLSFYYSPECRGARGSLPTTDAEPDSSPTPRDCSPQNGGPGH
Description: as §1

[12] = molecular target: TrkA (Homo sapiens, UniProt P04629); experiment: Kinase profiling TrkA; details: 100 micromolar inhibitor concentration, 100 is no change; for remaining activity at 100 µM: read-out: residual kinase activity, TrkA
Chain of TrkA (P04629 33-796, species assumed): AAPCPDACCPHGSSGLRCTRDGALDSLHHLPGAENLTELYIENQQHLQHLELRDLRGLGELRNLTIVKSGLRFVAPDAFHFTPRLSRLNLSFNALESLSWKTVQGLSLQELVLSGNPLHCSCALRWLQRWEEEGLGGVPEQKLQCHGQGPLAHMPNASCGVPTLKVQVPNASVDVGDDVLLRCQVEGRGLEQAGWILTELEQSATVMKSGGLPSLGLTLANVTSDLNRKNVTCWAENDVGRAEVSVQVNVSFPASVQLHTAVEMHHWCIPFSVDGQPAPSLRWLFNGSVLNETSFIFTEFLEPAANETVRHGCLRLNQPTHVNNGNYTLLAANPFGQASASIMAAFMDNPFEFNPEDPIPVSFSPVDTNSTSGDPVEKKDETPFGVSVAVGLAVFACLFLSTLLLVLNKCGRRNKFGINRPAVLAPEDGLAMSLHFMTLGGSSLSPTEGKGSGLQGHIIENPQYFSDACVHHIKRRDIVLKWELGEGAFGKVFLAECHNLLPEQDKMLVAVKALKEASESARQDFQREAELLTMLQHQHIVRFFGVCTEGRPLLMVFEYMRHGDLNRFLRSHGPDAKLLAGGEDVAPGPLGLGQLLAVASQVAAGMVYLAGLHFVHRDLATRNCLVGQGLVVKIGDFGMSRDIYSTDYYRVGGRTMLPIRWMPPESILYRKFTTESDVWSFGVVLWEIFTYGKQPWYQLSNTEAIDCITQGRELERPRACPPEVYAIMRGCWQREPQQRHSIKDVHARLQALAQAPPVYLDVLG
Description: as §1

[13] = molecular target: T4, DDR2 (Homo sapiens, UniProt Q16832); experiment: Kinase profiling DDR2; details: 100 micromolar inhibitor concentration, 100 is no change; for remaining activity at 100 µM: read-out: residual kinase activity, DDR2
T4 sequence (Q16832 22-855): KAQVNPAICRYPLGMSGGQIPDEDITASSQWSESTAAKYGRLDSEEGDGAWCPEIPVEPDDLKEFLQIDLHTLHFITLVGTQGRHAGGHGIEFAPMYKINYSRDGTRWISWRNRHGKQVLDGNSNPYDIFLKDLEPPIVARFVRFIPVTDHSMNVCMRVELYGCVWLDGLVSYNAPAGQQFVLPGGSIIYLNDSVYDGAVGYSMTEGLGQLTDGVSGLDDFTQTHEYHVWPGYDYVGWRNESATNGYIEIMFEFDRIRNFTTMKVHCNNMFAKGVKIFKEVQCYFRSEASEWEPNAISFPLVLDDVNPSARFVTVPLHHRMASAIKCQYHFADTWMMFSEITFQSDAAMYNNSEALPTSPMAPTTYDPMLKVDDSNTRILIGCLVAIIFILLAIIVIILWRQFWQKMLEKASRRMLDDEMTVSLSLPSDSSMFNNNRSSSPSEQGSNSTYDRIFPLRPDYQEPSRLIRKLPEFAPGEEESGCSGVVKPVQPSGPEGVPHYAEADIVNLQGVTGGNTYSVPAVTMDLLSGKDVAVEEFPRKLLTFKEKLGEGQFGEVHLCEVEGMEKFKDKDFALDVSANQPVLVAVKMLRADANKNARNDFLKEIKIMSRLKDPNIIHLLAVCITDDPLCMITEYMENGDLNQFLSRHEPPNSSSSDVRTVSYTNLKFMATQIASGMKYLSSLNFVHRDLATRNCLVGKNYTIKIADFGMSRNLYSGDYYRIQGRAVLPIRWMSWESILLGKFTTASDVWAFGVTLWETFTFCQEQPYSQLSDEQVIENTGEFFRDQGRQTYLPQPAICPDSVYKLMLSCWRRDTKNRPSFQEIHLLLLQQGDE
Description: as §1

Chain of MKK2 (P36507 whole entry, species assumed): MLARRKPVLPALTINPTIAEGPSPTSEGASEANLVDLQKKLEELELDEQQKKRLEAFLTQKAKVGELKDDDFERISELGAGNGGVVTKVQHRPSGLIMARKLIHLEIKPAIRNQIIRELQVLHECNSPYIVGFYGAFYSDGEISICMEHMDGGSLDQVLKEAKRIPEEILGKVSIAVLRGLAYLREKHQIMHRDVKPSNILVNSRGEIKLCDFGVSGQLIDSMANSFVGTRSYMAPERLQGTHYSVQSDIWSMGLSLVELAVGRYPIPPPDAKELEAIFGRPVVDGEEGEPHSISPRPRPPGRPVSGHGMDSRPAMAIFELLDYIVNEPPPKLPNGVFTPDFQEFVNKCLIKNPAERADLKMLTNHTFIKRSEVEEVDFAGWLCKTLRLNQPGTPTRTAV

| SMILES | residual kinase activity, MKK2 [1] | residual kinase activity, JNK2 [2] | residual kinase activity, p38d MAPK [3] | residual kinase activity, PHK [4] | residual kinase activity, Aurora A [5] | residual kinase activity, TTBK2 [6] | residual kinase activity, IKKe [7] | residual kinase activity, PAK2 [8] | residual kinase activity, PAK6 [9] | residual kinase activity, IRAK1 [10] | residual kinase activity, IRR [11] | residual kinase activity, TrkA [12] | residual kinase activity, DDR2 [13] | remaining activity at 100 µM [1] [%] | remaining activity at 100 µM [2] [%] | remaining activity at 100 µM [3] [%] | remaining activity at 100 µM [5] [%] | remaining activity at 100 µM [6] [%] | remaining activity at 100 µM [7] [%] | remaining activity at 100 µM [8] [%] | further results |
| --- | --- | --- | --- | --- | --- | --- | --- | --- | --- | --- | --- | --- | --- | --- | --- | --- | --- | --- | --- | --- | --- |
| O=C(Nc1nc2cc(O)ccc2s1)c1cccnc1 [Compound 03-33] | 85 | 92 | 103 | 74 | 108 | 102 | 81 | 114 | 119 | 57 | 51 | 51 | 109 | – | – | – | – | – | – | – | – |
| O=C(Nc1nc2ccc(O)cc2s1)c1ccccc1 [Compound 03-60] | 90 | 107 | 75 | 33 | 82 | 44 | 27 | 94 | 104 | 26 | 31 | 23 | 112 | – | – | – | – | – | – | – | – |
| CC(=O)Nc1nc2ccc(C(F)(F)F)cc2s1 [Compound 01-90] | – | – | – | 52 | – | – | – | – | – | – | – | – | – | 73 | 87 | 76 | 81 | 98 | 81 | 103 | remaining activity at 100 µM [9]: 106%; remaining activity at 100 µM [10]: 43%; remaining activity at 100 µM [11]: 49%; remaining activity at 100 µM [12]: 45%; remaining activity at 100 µM [13]: 62% |
| O=C(Nc1nc2ccc(O)cc2s1)c1ccncc1 [Compound 08-42] | 72 | 90 | 65 | 58 | 103 | 74 | 47 | 108 | 93 | 38 | 71 | 81 | 89 | – | – | – | – | – | – | – | – |
| O=C(Nc1nc2cc(O)ccc2s1)c1ccccn1 [Compound 03-13] | 82 | 103 | 99 | 28 | 93 | 71 | 63 | 119 | 99 | 38 | 78 | 57 | 85 | – | – | – | – | – | – | – | – |
| COc1ccc2sc(NC(C)=O)nc2c1 [Compound 03-21] | – | – | – | 111 | – | – | – | – | – | – | – | – | – | 90 | 92 | 75 | 103 | 84 | 91 | 95 | remaining activity at 100 µM [9]: 108%; remaining activity at 100 µM [10]: 45%; remaining activity at 100 µM [11]: 47%; remaining activity at 100 µM [12]: 78%; remaining activity at 100 µM [13]: 102% |
| CC(=O)Nc1nc2ccc(C#N)cc2s1 [Compound 01-94] | – | – | – | 63 | – | – | – | – | – | – | – | – | – | 54 | 82 | 69 | 61 | 78 | 64 | 101 | remaining activity at 100 µM [9]: 92%; remaining activity at 100 µM [10]: 11%; remaining activity at 100 µM [11]: 42%; remaining activity at 100 µM [12]: 87%; remaining activity at 100 µM [13]: 93% |
| O=C(Nc1nc2cc(O)ccc2s1)c1ccncc1 [Compound 03-11] | 98 | 93 | 82 | 63 | 106 | 99 | 69 | 88 | 90 | 68 | 86 | 87 | 115 | – | – | – | – | – | – | – | – |
